The record followed here is paper doi:10.1101/2022.04.17.488584v1, “A cobB like protein in Oryza sativa indica regulates the mitochondrial machinery under stress conditions” (biorxiv, 2022).

In experiment [1] the target is T1, OscobB (Oryza sativa, UniProt A2XBC4).
T1 construct: gene OsI_09569; cobB-like portion 269-501 of OsI_09569, untagged, modified pET28a (insert 711 bp), E. coli BL21(DE3), ion exchange; 25-28 kDa monomer
T1 sequence (A2XBC4 269-501): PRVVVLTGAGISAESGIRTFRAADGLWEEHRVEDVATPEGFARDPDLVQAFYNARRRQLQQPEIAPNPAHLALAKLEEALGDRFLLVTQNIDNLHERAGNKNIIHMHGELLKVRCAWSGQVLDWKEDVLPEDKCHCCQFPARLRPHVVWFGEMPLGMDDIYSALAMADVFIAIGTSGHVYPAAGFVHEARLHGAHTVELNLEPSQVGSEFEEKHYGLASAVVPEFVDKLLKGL
Nature of the experiment: dot blot deacetylation assay. The class given is biochemical.

The target of experiment [2] is T1, OscobB. Nature of the experiment: intrinsic tryptophan fluorescence quenching. The class given is binding.
Experiment [3] deals with T1, OscobB. Nature of the experiment: dot blot deacetylation assay. It is filed as biochemical. This is another data set of the same source.

SMILES strings stand for the structures. Where two headings read alike, the source gives them in different places.

`Nc1ncnc2c1ncn2[C@@H]1O[C@H](COP(=O)(O)OP(=O)(O)OC[C@H]2OC(O)[C@H](O)[C@@H]2O)[C@@H](O)[C@H]1O` (stereo partly shown) [ADP-ribose]: at OscobB [1] (NAD+, analog of product O-acetyl-ADP-ribose), half-maximal inhibition (IC50) was put at 410 µM.

As for `NC(=O)c1cccnc1` [NAM], on OscobB [1], the midpoint of inhibition, the IC50, lay at 253 ± 45 µM.

`NC(=O)c1ccc[n+]([C@@H]2O[C@H](COP(=O)(O)OP(=O)(O)OC[C@H]3O[C@@H](n4cnc5c(N)ncnc54)[C@H](O)[C@@H]3O)[C@@H](O)[C@H]2O)c1` [NAD^+] came in with a Kd at OscobB [2] of 30 ± 2 µM.

In turn, `Oc1ccc(/C=C/c2cc(O)cc(O)c2)cc1` [resveratrol] displayed an EC50 on OscobB [3] of 51 µM.

The IC50 is the concentration that inhibits the measured activity by half. A word on the Kd: it is a measure of binding affinity in units of concentration. A higher Kd goes with weaker binding. The term EC50 denotes the concentration at which the effect is half-maximal. Lower therefore signals greater potency.
